{"source": "paper PMC9578445", "about": "“Association of respiratory failure with inhibition of NaV1.6 in the phrenic nerve” (Channels, 2022)", "key": {"Nav1.6": {"target": "Nav1.6 (Homo sapiens, UniProt Q9UQD0)", "sequence (Q9UQD0 whole entry)": "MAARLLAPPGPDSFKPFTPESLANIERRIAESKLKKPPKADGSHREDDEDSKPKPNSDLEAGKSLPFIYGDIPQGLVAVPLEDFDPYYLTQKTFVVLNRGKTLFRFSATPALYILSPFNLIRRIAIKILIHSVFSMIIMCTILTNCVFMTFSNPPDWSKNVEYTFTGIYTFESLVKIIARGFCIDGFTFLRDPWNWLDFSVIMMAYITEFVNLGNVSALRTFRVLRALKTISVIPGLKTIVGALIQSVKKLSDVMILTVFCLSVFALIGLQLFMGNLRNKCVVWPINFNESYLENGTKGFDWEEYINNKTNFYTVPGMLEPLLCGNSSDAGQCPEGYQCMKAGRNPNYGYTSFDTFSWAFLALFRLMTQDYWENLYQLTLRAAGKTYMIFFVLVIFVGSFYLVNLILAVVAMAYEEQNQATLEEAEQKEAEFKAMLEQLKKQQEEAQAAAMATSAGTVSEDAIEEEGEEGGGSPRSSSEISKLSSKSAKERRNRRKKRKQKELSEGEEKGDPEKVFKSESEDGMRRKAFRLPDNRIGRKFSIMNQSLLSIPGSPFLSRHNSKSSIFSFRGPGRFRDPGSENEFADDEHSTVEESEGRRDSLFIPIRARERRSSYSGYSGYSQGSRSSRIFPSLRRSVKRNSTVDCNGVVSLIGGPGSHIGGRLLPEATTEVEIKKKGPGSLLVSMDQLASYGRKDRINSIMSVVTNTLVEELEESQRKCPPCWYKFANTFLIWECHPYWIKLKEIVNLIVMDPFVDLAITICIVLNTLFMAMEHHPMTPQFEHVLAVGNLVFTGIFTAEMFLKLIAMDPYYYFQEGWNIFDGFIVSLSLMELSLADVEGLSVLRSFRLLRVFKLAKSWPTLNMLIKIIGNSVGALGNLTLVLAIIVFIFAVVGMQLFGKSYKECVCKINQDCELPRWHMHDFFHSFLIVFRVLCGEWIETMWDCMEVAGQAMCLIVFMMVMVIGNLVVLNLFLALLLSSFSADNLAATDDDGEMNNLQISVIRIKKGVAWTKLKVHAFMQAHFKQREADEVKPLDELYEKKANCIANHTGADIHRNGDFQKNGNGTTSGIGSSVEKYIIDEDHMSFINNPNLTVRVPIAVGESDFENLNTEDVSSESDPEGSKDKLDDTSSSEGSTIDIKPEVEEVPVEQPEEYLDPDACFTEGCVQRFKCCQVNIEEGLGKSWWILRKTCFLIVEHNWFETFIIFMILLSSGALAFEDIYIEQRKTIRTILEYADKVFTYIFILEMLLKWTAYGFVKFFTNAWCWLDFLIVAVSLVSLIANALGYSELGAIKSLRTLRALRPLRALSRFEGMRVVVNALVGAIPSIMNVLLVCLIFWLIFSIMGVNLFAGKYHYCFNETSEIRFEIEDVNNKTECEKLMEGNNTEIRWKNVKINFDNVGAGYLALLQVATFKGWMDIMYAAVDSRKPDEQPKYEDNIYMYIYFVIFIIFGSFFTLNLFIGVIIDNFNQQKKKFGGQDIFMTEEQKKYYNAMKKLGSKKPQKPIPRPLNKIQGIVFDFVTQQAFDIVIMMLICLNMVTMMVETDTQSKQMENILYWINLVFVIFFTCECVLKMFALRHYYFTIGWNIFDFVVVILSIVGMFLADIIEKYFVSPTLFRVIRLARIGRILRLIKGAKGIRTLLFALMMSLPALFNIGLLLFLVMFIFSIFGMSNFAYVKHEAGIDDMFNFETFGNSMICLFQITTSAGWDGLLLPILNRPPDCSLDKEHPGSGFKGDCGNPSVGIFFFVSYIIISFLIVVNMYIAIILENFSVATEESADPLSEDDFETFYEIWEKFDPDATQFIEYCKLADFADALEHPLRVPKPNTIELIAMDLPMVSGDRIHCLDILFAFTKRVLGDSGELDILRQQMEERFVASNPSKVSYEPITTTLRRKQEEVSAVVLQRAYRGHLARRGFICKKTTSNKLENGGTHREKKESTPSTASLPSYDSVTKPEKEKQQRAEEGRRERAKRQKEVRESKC", "experiment": "PatchXpress automated patch clamp, hyperpolarized-state protocol", "type": "cell-based", "set-up": "expressed in transfected cells", "details": "HEK 293 cells, hyperpolarized protocol", "experimental": "(§1) Sodium currents were recorded from recombinant Human Embryonic Kidney 293 cell lines stably overexpressing the respective sodium channel type (NaV1.2, 1.5, 1.4, 1.6, 1.7). Recording solutions were comprised of the following (in mM): Internal solution: 30 CsCl, 5 HEPES, 10 EGTA, 120 CsF, 5 NaF, 2 MgCl2, pH = 7.3 with CsOH; External solution 1: 40 NaCl, 120 NMDG, 1 KCl, 0.5 MgCl2, 5 HEPES, 2.7 CaCl2, pH to 7.3 with NaOH, used for NaV1.5 recordings; External solution 2: 150 NaCl, 5 KCl, 2 CaCl2, 1 MgCl2, 10 HEPES, 12 Dextrose, pH 7.3 with NaOH, used for NaV1.7, 1.6, 1.4, and 1.2 recordings.\n(§2) Whole-cell currents were recorded from cells stably expressing NaV channels using the PatchXpress 7000A automated patch clamp platform (Molecular Devices, LLC; Sunnyvale, CA). A portable air-conditioning unit was installed on the PatchXpress instruments to maintain the temperature of the headstage at 21°C. Cells were voltage clamped at −60 mV for cell detection and sealing. At the start of each recording, a voltage curve and an inactivation curve was run for each cell to determine the voltage at which 50% of the channels reside in the inactivated state (V0.5 inact). The voltage curve was used to determine if the cell was adequately clamped; cells with currents larger than 10nA or with space clamp issues were not used further.\n(§3) NaV1.7, NaV1.6, NaV1.4: Compound potency was measured in a hyperpolarized-state protocol where the holding potential for each cell was set to V0.5inact – 20 mV. A pulse train consisting of 7 consecutive double pulses, 8 second hypepolarizing prepulse to −120 mV followed by a test pulse to −10 mV was applied at a frequency of 0.1 Hz. First, vehicle (0.3% DMSO) was added to establish a baseline measurement. Once baseline was established, test compounds were added. Cells were exposed to compound for 5 minutes at 20 mV negative to V0.5inact then exposed to the same hyperpolarized voltage protocol. (no pulsing during compound incubation). A washout was performed to measure recovery of the sodium currents from inhibition.\n(§4) Recordings were included for analysis when current amplitude reached steady-state in vehicle, compound inhibition was concentration-dependent and currents recovered during wash-out periods. Raw data from PatchXpress experiments were retrieved from the database and analyzed using the DataXpress 2 software (Molecular Devices).\n(§5) At least 3 concentrations (3–9 replicates per concentration) were tested and at least one concentration had to cause 20–80% current inhibition."}, "[1]": {"experiment": "Plasma exposure in rat CV/R assay", "type": "in vivo", "details": "for concentration at 15 min / concentration at 30 min: CD, rat, plasma, iv, IV infusion", "excerpt": "For in vivo CVR and phrenic nerve activity studies, all raw signals were amplified via general purposed biological amplifier (filter settings DC – 3-5 KhZ) then digitized, calibrated and collected at a minimum of 500 Hz (1000 Hz for ECG and 2000 Hz for cardiac electrograms, and 10 KHz for phrenic nerve activity) using Notocord-HEM data acquisition and analysis software. The raw signal was filtered following acquisition with a bandpass filter set to 200–800 Hz). Vehicle (100% dimethylformamdide, DMF) or compound formulated in the vehicle was administered as a 30-minute IV infusion at 0.0167 μL/g body weight/min. […] Exposure in rats was determined in separate pharmacokinetics experiments where compounds were administered via IV dosing."}, "Human NaV1.4": {"target": "T1, Human NaV1.4 (Homo sapiens, UniProt P35499)", "T1 construct": "expressed in transfected cells", "experiment": "PatchXpress automated patch clamp, hyperpolarized-state protocol", "type": "cell-based", "details": "HEK 293 cells", "experimental": "as §1, §2, §3, §4, §5"}, "Rat NaV1.6": {"target": "T2, Rat NaV1.6 (Rattus norvegicus, UniProt O88420)", "T2 construct": "expressed in transfected cells; host or cells: HEK cells", "experiment": "PatchXpress automated patch clamp, hyperpolarized-state protocol", "type": "cell-based", "details": "HEK cells, hyperpolarized protocol", "experimental": "as §1, §2, §3, §4, §5"}, "Human NaV1.7": {"target": "T3, Human NaV1.7 (Homo sapiens, UniProt Q15858)", "T3 construct": "expressed in transfected cells", "T3 sequence (Q15858 whole entry)": "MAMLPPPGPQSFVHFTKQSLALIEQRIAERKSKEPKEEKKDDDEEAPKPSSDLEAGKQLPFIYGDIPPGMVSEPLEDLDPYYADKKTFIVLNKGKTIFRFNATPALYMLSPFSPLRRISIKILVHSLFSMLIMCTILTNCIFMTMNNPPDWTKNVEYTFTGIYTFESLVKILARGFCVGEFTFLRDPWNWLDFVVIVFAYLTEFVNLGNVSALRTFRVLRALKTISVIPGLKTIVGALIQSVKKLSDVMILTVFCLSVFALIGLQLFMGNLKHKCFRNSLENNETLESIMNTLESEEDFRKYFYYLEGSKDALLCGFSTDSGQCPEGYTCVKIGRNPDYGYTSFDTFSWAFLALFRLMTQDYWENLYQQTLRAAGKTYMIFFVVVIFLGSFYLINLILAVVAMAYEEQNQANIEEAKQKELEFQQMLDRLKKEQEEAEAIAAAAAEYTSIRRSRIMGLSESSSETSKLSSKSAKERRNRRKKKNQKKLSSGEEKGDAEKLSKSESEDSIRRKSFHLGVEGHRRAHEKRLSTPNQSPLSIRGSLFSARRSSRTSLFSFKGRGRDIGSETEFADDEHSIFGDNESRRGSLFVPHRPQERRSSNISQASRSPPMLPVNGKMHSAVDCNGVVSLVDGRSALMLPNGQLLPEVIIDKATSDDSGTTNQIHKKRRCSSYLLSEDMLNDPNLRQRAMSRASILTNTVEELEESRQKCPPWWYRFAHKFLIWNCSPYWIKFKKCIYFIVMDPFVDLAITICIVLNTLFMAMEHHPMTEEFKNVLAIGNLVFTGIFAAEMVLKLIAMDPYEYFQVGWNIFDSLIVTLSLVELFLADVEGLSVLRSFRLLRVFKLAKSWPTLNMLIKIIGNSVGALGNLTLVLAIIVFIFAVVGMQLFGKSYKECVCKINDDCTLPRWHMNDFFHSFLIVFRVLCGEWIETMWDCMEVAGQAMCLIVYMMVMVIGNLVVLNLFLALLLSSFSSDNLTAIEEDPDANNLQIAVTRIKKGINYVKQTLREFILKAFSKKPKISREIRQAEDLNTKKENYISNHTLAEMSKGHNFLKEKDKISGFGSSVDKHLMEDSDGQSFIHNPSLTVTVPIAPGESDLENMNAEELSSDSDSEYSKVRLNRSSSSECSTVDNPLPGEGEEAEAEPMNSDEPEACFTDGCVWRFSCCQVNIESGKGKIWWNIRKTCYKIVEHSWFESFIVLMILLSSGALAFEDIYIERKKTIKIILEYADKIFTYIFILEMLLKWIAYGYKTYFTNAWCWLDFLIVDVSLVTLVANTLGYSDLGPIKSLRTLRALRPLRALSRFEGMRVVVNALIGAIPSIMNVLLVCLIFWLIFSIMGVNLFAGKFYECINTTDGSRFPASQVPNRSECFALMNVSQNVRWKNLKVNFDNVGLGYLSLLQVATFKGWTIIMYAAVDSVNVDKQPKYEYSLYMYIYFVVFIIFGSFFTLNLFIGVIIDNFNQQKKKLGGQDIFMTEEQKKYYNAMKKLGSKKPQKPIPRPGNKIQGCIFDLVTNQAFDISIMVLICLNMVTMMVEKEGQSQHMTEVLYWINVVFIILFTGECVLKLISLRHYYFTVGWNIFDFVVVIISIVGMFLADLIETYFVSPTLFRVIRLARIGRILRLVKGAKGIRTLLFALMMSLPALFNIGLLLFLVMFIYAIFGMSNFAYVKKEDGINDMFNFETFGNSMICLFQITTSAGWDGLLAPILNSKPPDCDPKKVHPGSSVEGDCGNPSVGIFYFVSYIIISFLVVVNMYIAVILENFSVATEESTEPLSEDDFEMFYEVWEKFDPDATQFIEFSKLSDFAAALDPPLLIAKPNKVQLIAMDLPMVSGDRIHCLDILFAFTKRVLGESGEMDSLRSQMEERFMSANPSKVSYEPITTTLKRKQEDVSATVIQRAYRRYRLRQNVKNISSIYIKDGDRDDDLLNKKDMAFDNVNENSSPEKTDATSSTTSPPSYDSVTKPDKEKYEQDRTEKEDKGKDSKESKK", "experiment": "PatchXpress automated patch clamp, hyperpolarized-state protocol", "type": "cell-based", "details": "HEK 293 cells", "experimental": "as §1, §2, §3, §4, §5"}, "Pgp": {"target": "Pgp (Homo sapiens, UniProt P08183)", "experiment": "Permeability BA/AB ratio (Pgp transport)", "type": "in vitro ADME", "details": "not told"}, "[2]": {"tested_on": "anesthetized male CD rats", "experiment": "Rat Cardiovascular/Respiratory (CV/R) assay", "type": "in vivo", "set-up": "∆ QRS Interval: unit not given here", "details": "for ∆ Heart Rate / ∆ Mean Arterial Pressure / ∆ QRS Interval / ∆ respiratory rate: rat", "experimental": "Male CD Rats were anesthetized with ketamine:xylazine (85 mg/kg:5 mg/kg, im, to effect). The left femoral artery and vein were cannulated for the measurement of blood pressure and the administration of test agent, respectively. The right femoral vein was cannulated for maintenance anesthetic infusion (ketamine:xylazine ~35 mg/kg/hr:1.5 mg/kg/hr, iv, to effect). Needle electrodes were placed subcutaneously at the right axillary and left inguinal areas to record lead II ECGs. When ECG intervals were required to determine effect on cardiac conduction a pacing/recording electrode catheter was advanced through the right jugular vein to pace the heart. ECG intervals were then measured at a fixed cardiac rate of 400 beats/minute to remove any variability of intrinsic heart rate on these parameters.\nTo determine the test agent-dependent effect on respiratory rate, a tracheotomy was also performed using a short length of polyethylene tubing containing a thermistor (AD Instruments). The change in temperature detected by the thermistor was used to calculate respiratory rate.\nFor in vivo CVR and phrenic nerve activity studies, all raw signals were amplified via general purposed biological amplifier (filter settings DC – 3-5 KhZ) then digitized, calibrated and collected at a minimum of 500 Hz (1000 Hz for ECG and 2000 Hz for cardiac electrograms, and 10 KHz for phrenic nerve activity) using Notocord-HEM data acquisition and analysis software. The raw signal was filtered following acquisition with a bandpass filter set to 200–800 Hz). Vehicle (100% dimethylformamdide, DMF) or compound formulated in the vehicle was administered as a 30-minute IV infusion at 0.0167 μL/g body weight/min. Doses were selected to achieve unbound plasma concentrations in range of measured Nav1.6 IC50 values when infused at 0.0167uL/g body weight/min based on measured rat clearance, plasma protein binding and Nav1.6 IC50. Exposure in rats was determined in separate pharmacokinetics experiments where compounds were administered via IV dosing."}, "[3]": {"details": "14 mg/kg, 14 mg/kg, read-out: Total [plasma]"}, "[4]": {"details": "14 mg/kg, 14 mg/kg, read-out: Unbound [plasma]"}, "[5]": {"details": "male, 7 mg/kg, 7 mg/kg, read-out: Total [plasma]"}, "[6]": {"details": "male, 7 mg/kg, 7 mg/kg, read-out: Unbound [plasma]"}, "[7]": {"details": "male, 30 mg/kg, 30 mg/kg, read-out: Total [plasma]"}, "[8]": {"details": "male, 30 mg/kg, 30 mg/kg, read-out: Unbound [plasma]"}}, "note": "Like-named read-outs stand apart in the source and are kept apart here."}
{"smiles": "O=S(=O)(Nc1nccs1)c1cc(Cl)c(NCCCCNC[C@H]2CCCN2)cc1F", "note": "[SSCI-1]", "values": [{"measurement": "IC50", "setting": "Nav1.6", "value": "> 30", "unit": "µM"}, {"measurement": "concentration at 15 min", "setting": "[1]; [3]", "value": "88.3 ± 5.6", "unit": "µM"}, {"measurement": "concentration at 15 min", "setting": "[1]; [4]", "value": "5.9 ± 0.4", "unit": "µM"}, {"measurement": "concentration at 30 min", "setting": "[1]; [3]", "value": "104 ± 5.2", "unit": "µM"}, {"measurement": "concentration at 30 min", "setting": "[1]; [4]", "value": "7 ± 0.3", "unit": "µM"}, {"measurement": "concentration at 15 min", "setting": "[1]; [5]", "value": "54.4 ± 3.2", "unit": "µM"}, {"measurement": "concentration at 15 min", "setting": "[1]; [6]", "value": "3.6 ± 0.2", "unit": "µM"}, {"measurement": "concentration at 30 min", "setting": "[1]; [5]", "value": "76.7 ± 4.1", "unit": "µM"}, {"measurement": "concentration at 30 min", "setting": "[1]; [6]", "value": "5.1 ± 0.3", "unit": "µM"}, {"measurement": "concentration at 15 min", "setting": "[1]; [7]", "value": "230 ± 12", "unit": "µM"}, {"measurement": "concentration at 15 min", "setting": "[1]; [8]", "value": "15.4 ± 0.8", "unit": "µM"}, {"measurement": "concentration at 30 min", "setting": "[1]; [7]", "value": "252 ± 4", "unit": "µM"}, {"measurement": "concentration at 30 min", "setting": "[1]; [8]", "value": "16.9 ± 0.3", "unit": "µM"}, {"measurement": "unbound plasma exposure", "setting": "[1]; rat CV/R assay, no mortality", "value": 16.9, "unit": "µM"}, {"measurement": "IC50", "setting": "Human NaV1.4", "value": "> 30", "unit": "µM"}, {"measurement": "IC50", "setting": "Rat NaV1.6", "value": 19, "unit": "µM"}, {"measurement": "IC50", "setting": "Human NaV1.7", "value": 0.065, "unit": "µM"}, {"measurement": "efflux ratio", "setting": "Pgp", "value": "~1.1"}, {"measurement": "mortality", "setting": "[2]; rat CV/R assay, IV infusion, doses tested", "value": "No mortality"}, {"measurement": "effects on cardiovascular and respiratory parameters", "setting": "[2]; rat CV/R assay, at unbound plasma exposure 16.9 μM", "value": "minimal effects"}, {"measurement": "∆ Heart Rate", "setting": "[2]; IV infusion, 7 mg/kg, 15 min", "value": "0.5 ± 2.2", "unit": "bpm"}, {"measurement": "∆ Mean Arterial Pressure", "setting": "[2]; IV infusion, 7 mg/kg, 15 min", "value": "4.1 ± 0.3", "unit": "mmHg"}, {"measurement": "∆ QRS Interval", "setting": "[2]; IV infusion, 7 mg/kg, 15 min", "value": "1.4 ± 0.6"}, {"measurement": "∆ respiratory rate", "setting": "[2]; IV infusion, 7 mg/kg, 15 min", "value": "0.8 ± 1.8", "unit": "%"}, {"measurement": "∆ Heart Rate", "setting": "[2]; IV infusion, 7 mg/kg, 30 min", "value": "−1.8 ± 3.7", "unit": "bpm"}, {"measurement": "∆ Mean Arterial Pressure", "setting": "[2]; IV infusion, 7 mg/kg, 30 min", "value": "2.7 ± 0.5", "unit": "mmHg"}, {"measurement": "∆ QRS Interval", "setting": "[2]; IV infusion, 7 mg/kg, 30 min", "value": "2.5 ± 1.1"}, {"measurement": "∆ respiratory rate", "setting": "[2]; IV infusion, 7 mg/kg, 30 min", "value": "4.5 ± 1.7", "unit": "%"}, {"measurement": "∆ Heart Rate", "setting": "[2]; IV infusion, 14 mg/kg, 15 min", "value": "−1.4 ± 1.5", "unit": "bpm"}, {"measurement": "∆ Mean Arterial Pressure", "setting": "[2]; IV infusion, 14 mg/kg, 15 min", "value": "2.2 ± 1.1", "unit": "mmHg"}, {"measurement": "∆ QRS Interval", "setting": "[2]; IV infusion, 14 mg/kg, 15 min", "value": "0.4 ± 0.6"}, {"measurement": "∆ respiratory rate", "setting": "[2]; IV infusion, 14 mg/kg, 15 min", "value": "1.9 ± 1.6", "unit": "%"}, {"measurement": "∆ Heart Rate", "setting": "[2]; IV infusion, 14 mg/kg, 30 min", "value": "−0.5 ± 2.9", "unit": "bpm"}, {"measurement": "∆ Mean Arterial Pressure", "setting": "[2]; IV infusion, 14 mg/kg, 30 min", "value": "2.3 ± 2.5", "unit": "mmHg"}, {"measurement": "∆ QRS Interval", "setting": "[2]; IV infusion, 14 mg/kg, 30 min", "value": "0.4 ± 0.7"}, {"measurement": "∆ respiratory rate", "setting": "[2]; IV infusion, 14 mg/kg, 30 min", "value": "4.0 ± 1.0", "unit": "%"}, {"measurement": "∆ Heart Rate", "setting": "[2]; IV infusion, 30 mg/kg, 15 min", "value": "−0.4 ± 1.2", "unit": "bpm"}, {"measurement": "∆ Mean Arterial Pressure", "setting": "[2]; IV infusion, 30 mg/kg, 15 min", "value": "10.5 ± 1.5", "unit": "mmHg"}, {"measurement": "∆ QRS Interval", "setting": "[2]; IV infusion, 30 mg/kg, 15 min", "value": "3.7 ± 0.9"}, {"measurement": "∆ respiratory rate", "setting": "[2]; IV infusion, 30 mg/kg, 15 min", "value": "−10.1 ± 0.9", "unit": "%"}, {"measurement": "∆ Heart Rate", "setting": "[2]; IV infusion, 30 mg/kg, 30 min", "value": "2.1 ± 1.4", "unit": "bpm"}, {"measurement": "∆ Mean Arterial Pressure", "setting": "[2]; IV infusion, 30 mg/kg, 30 min", "value": "4.6 ± 1.9", "unit": "mmHg"}, {"measurement": "∆ QRS Interval", "setting": "[2]; IV infusion, 30 mg/kg, 30 min", "value": "3.9 ± 0.8"}, {"measurement": "∆ respiratory rate", "setting": "[2]; IV infusion, 30 mg/kg, 30 min", "value": "−24.8 ± 3.3", "unit": "%"}]}
